Measured values from US10517854B2, “Dosing regiments of celgosivir for the treatment of dengue” (60 Degrees Pharmaceuticals, LLC, priority 2013, dated 2019).
“Also recorded” adds a separate entry of the source. Read-outs that look alike come from different tables or passages of the source.

Columns and labels:
[1] = humans, cited from earlier work
DENV3 = assay: Cell-based flaviviral immunodetection assay (CFI), DENV3; conditions: Dengue virus, BHK-21; DENV3, BHK21 cells, 48 hours
DENV2 (TSV01 strain) = assay: Cell-based flaviviral immunodetection assay (CFI), DENV2; conditions: Dengue virus, DENV2, BHK-21, 48 h, DENV2, BHK21 cells
Procedure: BHK21 cells were seeded at 1.3×104 in 96-well plate and incubated overnight at 37° C. in 5% CO2 incubator. Confluent monolayer of BHK21 cells were infected with DENV2 (TSV01 strain) at an MOI (multiplicity of infection) 0.3 in the presence of various concentrations of test compounds and incubated for 1 hour at 37° C. in 5% CO2 incubator. Infected cells were incubated with test compounds for another 48 hours at 37° C. in 5A CO2. Cells were fixed with methanol and mouse monoclonal antibody 4G2 was used to detect DENV E protein, which was quantified using a secondary anti-mouse antibody conjugated with horseradish peroxidase (HRP). Absorbance was read at 450 nm and dose-response curve was plotted accordingly. The 50% effective concentration (EC50), that is, the concentration of the test compound that decreased the level of viral E protein production by 50%, was calculated by nonlinear regression analysis.

[2] = system: DENV2 in THP-1 human monocytes; assay: ADE infection of human monocytes (THP-1), plaque assay; assay type: cell-based; conditions: Dengue virus, THP-1, DENV2 + 4G2 antibody, 48 hours, read-out: EC50, suppression of viral replication under ADE condition
Procedure: The activity of celgosivir in infected human monocytes, one of the primary circulating cell types infected by dengue virus, was examined, THP-1 cells were grown in RPMI-1640 maintenance medium containing 10% fetal calf serum and 1% Penicillin-streptomycin and cultured in 37° C. incubator supplemented with 5% CO2. For ADE infection in THP-1 cells, virus (DENV2, MOI-10) was mixed with sub-neutralizing concentration of humanized 4G2 monoclonal antibody (0.05 μg/0.5 ml) and allowed to incubate on ice for 1 hr in the serum free medium, to allow immune complex formations. The immune complex was then added on to THP-1 (1×10^5) cells per well in a 24 well plate and further incubated for 2 hours at 37° C. incubator. An excess unbound immune complex was then removed by spinning cells at 1000 rpm for 5 min and then cells were supplemented with complete growth maintenance medium. For drug testing in the ADE condition, cells were mock (untreated) or celgosivir-treated for 48 hours, and finally media supernatant was collected for plaque assay analysis.

[3] = system: gastrointestinal α-amylase, sucrase, maltase; conditions: cited from earlier work
DENV2 infected BHK21 = assay: Fluorescence microscopy for NS1 in infected BHK21 cells; assay type: cell-based, dengue virus; conditions: 20 μM, 24 hr
Procedure: BHK21 cells were infected with DENV2 and treated with 20 μM celgosivir or saline. After 24 hr incubation, cells were stained with nuclear stain diamidino-2-phenylindole (DAPI) or with a MAb against NS1 in conjunction with a secondary antibody conjugated with Alexa-488 (green), then examined by fluorescent microscopy for the presence of NS1, a marker for viral replication.

DENV1 = assay: Cell-based flaviviral immunodetection assay (CFI), DENV1; conditions: Dengue virus, BHK-21; DENV1, BHK21 cells, 48 hours
[4] = cited from earlier work
[5] = set-up: tmax: unit not given here; conditions: cited from earlier work
[6] = system: DENV2 strain NGC subgenomic replicon; assay: Replicon assay (luciferase, A549 replicon cell line); assay type: cell-based; conditions: Dengue virus, A549 replicon cells, 48 hour
Procedure: The DENV subgenomic replicon was derived from the DENV2 strain NGC and consists of a luciferase reporter and a puromycin resistance gene for stable transfection. (7) Only the nonstructural proteins NS1, NS2A, NS2B, NS3, NS4A, NS4B, and NS5 were represented in the replicon construct. Of the nonstructural proteins, only NS1 is known to be glycosylated.
The stably transfected A549 replicon cell line was plated into a 96-well plate in the presence of various concentrations of test compounds and incubated for 48 hour at 37° C. in 5% CO2 incubator. The luciferase activity of the replicon treated with various concentrations of the test compound was measured using EnduRen (Promega) at a 1:1000 dilution followed by incubation for 2 hrs before the luminescence was read using a Tecan plate-reader. The data was plotted against the log transformation of the concentration of the compounds to obtain a dose-response curve to calculate the EC50 value.

DENV1-4 = assay: Inhibition of replication across dengue serotypes (CFI); assay type: cell-based; conditions: Dengue virus, DENV1 / DENV2, read-out: EC50 values for the other three serotypes
EDEM, XBP1, CHOP = assay: Host gene products during drug-induced unfolded protein response; assay type: cell-based; conditions: data not shown
Excerpt: The pro-survival products enhance the clearance of misfolded proteins by directing them to the proteosome for degradation.

DENV4 = assay: Cell-based flaviviral immunodetection assay (CFI), DENV4; conditions: Dengue virus, BHK-21; DENV4, BHK21 cells, 48 hours
DENV2 = conditions: cited from earlier work
[7] = healthy rats, single dose 35 mg/kg PO

CCCC(=O)O[C@H]1CN2CC[C@H](O)[C@@H]2[C@@H](O)[C@@H]1O.Cl [Celgosivir, celgosivir]
maximum tolerated dose (MTD) ([1]; HIV drug trials, for 184 days): 400 mg per day
adverse events [1]: largely gastrointestinal, namely flatulence and diarrhea, of mild to moderate intensity
serious adverse events [1]: No serious adverse events have been reported
serum creatine kinase [1]: Asymptomatic elevations
time to reversal of creatine kinase elevations after discontinuation [1]: ≤ 2 weeks
EC50 (DENV3): 0.68 ± 0.02 µM
EC50 (DENV2 (TSV01 strain)): 0.22 µM
EC50 [2]: 0.5 µM
inhibition of gastrointestinal enzymes, comparison [3]: weaker inhibitor than castanospermine
NS1 / viral replication by immunofluorescence (DENV2 infected BHK21): almost complete suppression of viral replication; also recorded: very low levels of NS1
EC50 (DENV1): 0.65 ± 0.16 µM
Cmax and AUC versus dose ([4]; humans): increase in proportion to dose
oral clearance ([4]; humans): 12 L/h
terminal half-life ([4]; humans): 18 h
conversion in humans ([4]; only castanospermine detected in plasma): rapidly convert to castanospermine
mean Cmax in the portal vein ([5]; 400 mg/kg celgosivir PO): 1900 ng/mL
AUC [5, 7]: 10.5
Cmax [5, 7]: 8760 ± 1150 ng/mL
tmax [5, 7]: 0.44±0.01
AUC 0-60 min ([5]; portal vein, 400 mg/kg celgosivir PO): 1000 ng·h/mL
Oral bioavailability ([5]; rat): 93%
half-life ([5]; rat): 2.7 h
oral clearance (CL/F) ([5]; rat): 41.7 mL/min/kg
EC50 [6]: 2.2 µM
EC50 (DENV1-4): 0.31 to 0.65 µM
apoptotic markers such as CHOP (EDEM, XBP1, CHOP): down-regulated
pro-survival host gene products such as EDEM and XBP1 (EDEM, XBP1, CHOP): upregulation
EC50 (DENV4): 0.31 ± 0.12 µM
reduction of viremia (DENV2; given at the time of infection): 88%
reduction of viremia (DENV2; treatment delayed by 24 hours): 55%
